ED50 and IC50 data for 19 molecules are collected here from patent publication US5134151A, “2-picolylamine derivatives” (J. Uriach & Cia, priority 1989, dated 1992).

The subject of assay [1] is hypotension induced by PAF. Description: Inhibition of the Hypotensive Effect Induced by PAF in Normotense Rats. It is filed as in vivo, Male Sprage Dawley rats. The note with it: Rattus norvegicus, iv, anesthetized, compound i.v. 3 min before PAF 0.5 mcg/Kg i.v., average arterial pressure, read-out: CI50 (inhibition of PAF-induced hypotension). As to the method:
Male Sprage Dawley rats, of 180-220 g of weight, anesthetized with sodium pentobarbital (50 mg/Kg, i.p. 1 mL/100 g) have been used. In order to measure the average arterial pressure, a polyethylene catheter is introduced into the carotid artery. The arterial pressure is recorded with the help of a transducer connected with a R611 Beckman polygraph. The tested compounds are administered through the femoral vein 3 min before the injection of PAF (0.5 mcg/Kg, i.v.).

Assay [2] concerns platelet aggregation induced by PAF. Description: Inhibition of Platelet Aggregation Induced by PAF (Born nephelometric technique, rabbit platelet rich plasma). It is filed as cell-based, male New Zealand albino rabbits. The note with it: PAF (C18) 16 nM final. The protocol: The blood is obtained by cardiac puncture of male New Zealand albino rabbits (between 2 and 2.5 Kg of weight) and coagulation is prevented by adding 1 part of 3.16% sodium citrate dihydrate in 9 parts of blood. The platelet rich plasma (PRP) is prepared by blood centrifugation at 250×g for 10 min. at 4° C. and it is diluted with platelet poor plasma (PPP) by additional centrifugation at 3000×g for 10 min. The amount of platelets is adjusted to 3×10^-5 /mm^3. the platelet aggregation induced by PAF (C18; prepared in our laboratory) (16 nM, final) is determined by the Born nephelometric technique (J. Physiol., 1962, 162, 67) using a aggregometer Chrono-log 500. The activities of the inhibitors are expressed as IC50, that is to say the concentration of the drug needed to inhibit the platelet aggregation by 50%.

[3] abbreviates: Oryctolagus cuniculus, Platelet.

Broadly, the IC50 is the concentration that inhibits the measured activity by half. High values mean lower potency, low ones higher potency.

For the molecule `CCCCCCCCCCCCCCCNC(=O)OCCOCCOCCOC(=O)N(Cc1cccc[n+]1CC)C(C)=O.[I-]` [Compound 46, 2-(N-Acetyl-N-((2-(2-(2-(pentadecylcarbamoyloxy)ethoxy)ethoxy)ethoxy)carbonyl)aminomethyl)-1-ethylpyridinium iodide], the ED50 in assay [1] worked out at 0.028 mg/kg. The midpoint of inhibition in assay [2] (setting [3]), the IC50, lay at 12 nM.

`CCCCCCCCCCCCCCCNC(=O)OCCOCCOC(=O)N(Cc1cccc[n+]1CC)C(=O)OCC.[I-]` [Compound 22, 2-(N-Ethoxycarbonyl-N-((2-(2-(pentadecylcarbamoyloxy)ethoxy)ethoxy)carbonyl)aminomethyl)-1-ethylpyridinium iodide]: the ED50 in assay [1] turned out to be 0.032 mg/kg. The molecule also displayed an IC50 in assay [2] (setting [3]) of 27 nM.

For the molecule `CC[n+]1ccccc1CN(C(C)=O)C(=O)OCCOCCOC(=O)NCC1CCCCC1.[I-]` [Compound 43, 2-(N-Acetyl-N-((2-(2-(cyclohexylmethylcarbamoyloxy)ethoxy)ethoxy)carbonyl)aminomethyl)-1-ethylpyridinium iodide], the ED50 in assay [1] amounted to 0.5 mg/kg. In assay [2] (setting [3]), the IC50 was determined as 2000 nM.

As for `CCCCCCCCCCCCCCCNC(=O)OCCSCCOC(=O)N(Cc1cccc[n+]1CC)C(C)=O.[I-]` [Compound 37, 2-(N-Acetyl-N-((2-(2-(pentadecylcarbamoyloxy)ethylthio)ethoxy)carbonyl)aminomethyl)-1-ethylpyridinium iodide], the ED50 in assay [1] turned out to be 0.044 mg/kg. The half-inhibitory concentration (IC50) in assay [2] (setting [3]) worked out at 6.8 nM.

On to `CCCCCCCCCCCCCCCCCNC(=O)OCCOCCOC(=O)N(Cc1cccc[n+]1CC)C(=O)OCC.[I-]` [Compound 16, 2-(N-Ethoxycarbonyl-N-((2-(2-(heptadecylcarbamoyloxy)ethoxy)ethoxy)carbonyl)aminomethyl)-1-ethylpyridinium iodide], for which the ED50 in assay [1] turned out to be 0.021 mg/kg. In assay [2] (setting [3]), the half-inhibitory concentration (IC50) is 12 nM.

Take `CCCCCCCCCCCCCCCNC(=O)OCCOCCOC(=O)N(Cc1cccc[n+]1CCC)C(C)=O.[I-]` [Compound 20, 2-(N-Acetyl-N-((2-(2-(pentadecylcarbamoyloxy)ethoxy)ethoxy)carbonyl)aminomethyl)-1-propylpyridinium iodide]: the ED50 in assay [1] turned out to be 0.68 mg/kg. Also, the half-maximal inhibitory concentration (IC50) in assay [2] (setting [3]) worked out at 220 nM.

With `CCCCCCCCCCCCCCCCCCOCCSCCOC(=O)N(Cc1cccc[n+]1CC)C(C)=O` [Compound 69, 2-(N-Acetyl-N-((2-(2-octadecyloxyethylthio)ethoxy)carbonyl)aminomethyl)-1-ethylpyridinium idodide], in assay [1], the ED50 is 0.016 mg/kg. The midpoint of inhibition in assay [2] (setting [3]), the IC50, lay at 15 nM.

Consider `CC[n+]1ccccc1CN(C(C)=O)C(=O)OCCOCCOC(=O)C(C)(C)C.[I-]` [Compound 9, 2-(N-Acetyl-N-((2-(2-pivaloyloxyethoxy)ethoxy)carbonyl)aminomethyl)-1-ethylpyridinium iodide], for which the ED50 in assay [1] stood at 5 mg/kg. In assay [2] (setting [3]), this molecule registered an IC50 of 1500 nM.

On to `CCCCCCCCCCCCCCCCOCCSCCOC(=O)N(Cc1cccc[n+]1CC)C(C)=O.[I-]` [Compound 66, 2-(N-Acetyl-N-((2-(2-hexadecyloxyethylthio)ethoxy)carbonyl)aminomethyl)-1-ethylpyridinium iodide], for which, in assay [1], the ED50 stood at 0.014 mg/kg. The molecule also gave a half-maximal inhibitory concentration (IC50) in assay [2] (setting [3]) of 4.4 nM.

For the molecule `CCCCCCCCCCCCCCCCCNC(=O)OCCOCCOC(=O)NCc1cccc[n+]1CC.[I-]` [Compound 13, 2-(N-((2-(2-(Heptadecylcarbamoyloxy)ethoxy)ethoxy)carbonyl)aminomethyl)-1-ethylpyridinium iodide], in assay [1], the ED50 is 0.5 mg/kg. The same molecule had an IC50 in assay [2] (setting [3]) of 1600 nM.

Take `CCCCCCCCCCCCCCCCCCOCCOCCOC(=O)N(Cc1cccc[n+]1CC)C(C)=O.[I-]` [Compound 3, 2-(N-Acetyl-N-((2-(2-octadecyloxyethoxy)ethoxy)carbonyl)aminomethyl)-1-ethylpyridinium iodide]: the ED50 in assay [1] was 0.022 mg/kg. In assay [2] (setting [3]), this molecule displayed a half-inhibitory concentration (IC50) of 19 nM.

For the molecule `CCCCCCCCCCCCCCCCCNC(=O)OCCOCCOC(=O)N(Cc1cccc[n+]1CC)C(C)=O` [Compound 12, 2-(N-Acetyl-N-((2-(2-heptadecylcarbamoyloxy)ethoxy)ethoxy)carbonyl)aminomethyl)-1-ethylpyridium chloride], the ED50 in assay [1] was found to be 0.067 mg/kg. Moreover, in assay [2] (setting [3]), 27 nM corresponded to half-maximal inhibition (IC50).

On to `CCCCCCCCCCCCCCCNC(=O)OCCOCCOC(=O)N(Cc1cccc[n+]1CC)C(C)=O.[I-]` [Compound 19, 2-(N-Acetyl-N-((2-(2-(pentadecylcarbamoyloxy)ethoxy)ethoxy)carbonyl)aminomethyl)-1-ethylpyridinium iodide], for which the ED50 in assay [1] is 0.041 mg/kg. The half-maximal inhibitory concentration (IC50) in assay [2] (setting [3]) turned out to be 19 nM.

In the case of `CCCCCCCCCCCCCCCCCNC(=O)OCCOCCOC(=O)N(Cc1cccc[n+]1C)C(C)=O.[I-]` [Compound 14, 2-(N-Acetyl-N-((2-(2-(heptadecylcarbamoyloxy)ethoxy)ethoxy)carbonyl)aminomethyl)-1-methylpyridinium iodide], the ED50 in assay [1] worked out at 0.13 mg/kg. In assay [2] (setting [3]), this molecule displayed an IC50 of 54 nM.

With `CCCCCCCCCCCCCCCCCNC(=O)OCCSCCOC(=O)N(Cc1cccc[n+]1CC)C(C)=O.[Cl-]` [Compound 63, 2-(N-Acetyl-N-((2-(2-(heptadecylcarbamoyloxy)ethylthio)ethoxy)carbonyl)aminomethyl)-1-ethylpyridinium chloride], the ED50 in assay [1] is 0.018 mg/kg. In addition, half-maximal inhibition in assay [2] (IC50) was put at 12 nM.

Consider `CCCCCCCCCCCCCCCNC(=O)OCCCCCOC(=O)N(Cc1cccc[n+]1CC)C(C)=O.[I-]` [Compound 31, 2-(N-Acetyl-N-((5-(pentadecylcarbamoyloxy)pentoxy)carbonyl)aminomethyl)-1-ethylpyridinium iodide], for which, in assay [1], the ED50 is 0.057 mg/kg. In addition, the half-inhibitory concentration (IC50) in assay [2] (setting [3]) worked out at 32 nM.

As for `CCCCCCCCCCCCCCCCCNC(=O)OCCSCCOC(=O)N(Cc1cccc[n+]1CC)C(C)=O.[I-]` [Compound 62, 2-(N-Acetyl-N-((2-(2-(heptadecylcarbamoyloxy)ethylthio)ethoxy)carbonyl)aminomethyl)-1-ethylpyridinium iodide], the ED50 in assay [1] was determined as 0.013 mg/kg. Moreover, the midpoint of inhibition in assay [2], the IC50, lay at 4.4 nM.

`CC[n+]1ccccc1CN(C(C)=O)C(=O)OCCOCCOC(=O)NCCCc1ccccc1.[I-]` [Compound 40, 2-(N-Acetyl-N-((2-(2-(3-phenylpropylcarbamoyloxy)ethoxy)ethoxy)carbonyl)aminomethyl)-1-ethylpyridinium iodide]: in assay [1], the ED50 is 0.88 mg/kg. Besides, the 50% inhibitory concentration (IC50) in assay [2] (setting [3]) stood at 1200 nM.

As to `CCCCCCCCCCCCCCCNC(=O)OCCOCCOC(=O)N(Cc1cccc[n+]1CC)C(=O)OCC(C)C.[Cl-]` [Compound 25, 2-(N-Isobutyloxycarbonyl-N-((2-(2-(pentadecylcarbamoyloxy)ethoxy)ethoxy)carbonyl)aminomethyl)-1-ethylpyridinium chloride], the ED50 in assay [1] was 0.064 mg/kg. In assay [2] (setting [3]), half-maximal inhibition (IC50) required 51 nM.
